Where two headings read alike, the source gives them in different places. Ends that are not written are not given here.

The target of assay [1] is PCNA. Particulars: cited from earlier work. From the text:
Supplement 18_2019_3150_MOESM1_ESM.docx, table 2: Table S2: Binding affinities of curated PCNA binding proteins. | column: KD (M)

The target in assay [2] is PCNA. Also noted: method as in 11 sources, ref PMID 15576034 ||| ref PMID 10858286 ||| ref PMID 23139781 ||| ref PMID 30655288 ||| ref PMID 28621305 ||| ... Particulars: ITC, cited from earlier work.
The target in assay [3] is T1, human PCNA (Homo sapiens, UniProt P12004). Put plainly: ITC, PCNA injected into peptide. Type of assay: binding. Background: Isothermal titration calorimetry measures the heat released or taken up as one component is titrated into another.
T1 sequence (P12004 whole entry): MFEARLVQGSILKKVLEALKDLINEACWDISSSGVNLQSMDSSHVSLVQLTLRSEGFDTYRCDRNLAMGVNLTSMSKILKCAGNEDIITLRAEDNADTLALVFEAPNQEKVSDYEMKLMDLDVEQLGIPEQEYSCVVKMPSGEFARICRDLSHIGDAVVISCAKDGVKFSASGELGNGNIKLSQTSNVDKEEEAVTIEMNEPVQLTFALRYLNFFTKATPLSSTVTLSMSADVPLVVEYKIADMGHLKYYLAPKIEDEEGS
Protocol: PCNA was buffer exchanged and concentrated using a 10000 MWCO filter (millipore) against the ITC buffer (10 mM HEPES, 150 mM NaCl, 1 mM EDTA, 1 mM TCEP, pH 7.4) for all experiments. The lyophilized peptides were dissolved in the ITC buffer at concentrations between 0.2 and 1 mM determined using A280. For all experiments, PCNA was injected into peptide. For p21^143–157 the peptide concentration was 10 µM, and the PCNA trimer concentration 40 µM. […] For experiments with S2, S1, and D1.2, the peptide concentrations were 20 µM, 60 µM, and 50 µM, respectively, and the PCNA trimer concentration 100 µM, 200 µM, and 269 µM, respectively. All buffer, protein, and peptide solutions were properly degassed prior to loading. ITC was performed with the microCal instrument ITC200 (Malvern). Data were recorded at 25 °C with a stirring speed of 307 rpm and a reference power of 10 µCal s^−1. The heat of dilution was determined from the final injections after saturation of the complex and was subtracted from the data for all peptides except S1 and D1.2 where saturation was not reached. Data from the ITC experiments were analyzed using the Origin 7 software package (MicroCal™). The data were fitted to a single binding site model.
All experiments were carried out in triplicates. […] In the case of the D1.2 peptide, the stoichiometry was kept constant at three peptides per PCNA molecule to achieve convergence in the fitting procedure.
Assay [4] concerns the target PCNA. Details: method as in 4 sources, one per row (each row's own in cited_ref): ref PMID 19208623 ||| ref PMID 8876181 ||| ref PMID 24728180 ||| ref PMID 10899134. Particulars: SPR, cited from earlier work. For orientation: In SPR one partner is held on a chip, and binding of the other changes the refractive index at the surface.
Assay [5] has as its target T1, human PCNA. Put plainly: SPR binding of peptides to His6-tagged PCNA captured by anti-His6 antibody. Particulars: for Kd: Table S2, SPR, pH 7.5, T 298, This work.
Protocol: A stock of > 100 µM PCNA in purification buffer was diluted to the working concentration of 200 nM in 10 mM NaH2PO4, 500 mM NaCl, pH 7.0, 1 mM β-mercaptoethanol. The peptides were dissolved in SPR running buffer (i.e., 10 mM HEPES, 150 mM NaCl, 0.05% (v/v) P20, pH 7.4).
Binding analyses were recorded on a Biacore T200™ instrument (GE Healthcare Life Sciences). A single cycle protocol setup was used for the injection of ligands in flow cells with PCNA captured by an anti-His antibody covalently coupled to a CM5 chip (GE Healthcare Life Sciences, Cat# BR100530). […] Remaining activated NHS-esters were blocked by injecting 35 µL 1 M ethanolamine, pH 8.5. All procedures were conducted at a flow rate of 5 µL min^−1. […] The control surface was not exposed to PCNA. […] The injection cycles alternated between injections cycles of buffer and peptide with no intervening regeneration. […] For the UNG2, APIM, and FEN1 measurements, a final injection cycle of p21 with a final concentration of 50 nM was run as a control of consistency. Complete regeneration of the flow cells between each single-cycle run was accomplished by injecting 10 mM glycine–HCl, pH 1.5 for 60 s with a flow rate of 30 µL min^−1. All measurements were carried out at 25 °C.
Fitting of the data by non-linear regression to a bimolecular interaction model, assuming pseudo-first order reaction condition yielded the association (kon) and dissociation (koff) rate constants. […] For runs with different capture levels of PCNA for each injection cycle, the responses were normalized to a common Rmax value. We used the evaluation software supplied with the instrument for global fitting (BiacoreT200 Evaluation 3.0).
Where [6] appears, read: pH 7.5, T 298, ref PMID 19208623.
Where [7] appears, read: pH 7.5, T 279, ref PMID 23677613.
[8] abbreviates: pH 7.5, T 303, ref PMID 15576034.
The mark [9] stands for this setting: SPR single-cycle kinetics, bimolecular model, 10 mM HEPES, 150 mM NaCl, 0.05% P20, pH 7.4, 25 °C.

One may read the Kd as the equilibrium constant for the complex coming apart. For the substance MGRKRLITDSYPVVKRREG [p12 1-19], the dissociation constant (Kd) at PCNA [1] (NMR, pH 7.0, T 308, ref PMID 30655288) is 130 µM; on PCNA [2] (pH 7.0, T 298, ref PMID 30655288), 38 µM.

On to “KQRVRVKTVPSLFQAKLD TFLWS [TRAIP 447–469, literature TRAIP peptide]”, for which, on PCNA [2] (pH 7.4, T 298, ref PMID 26711499), the equilibrium dissociation constant (Kd) was 30.7 µM.

In the case of Ac-RKRRQGRLDDFFHSKRRL-NH2, at human PCNA [3] (ITC, versus Fen1 peptide), the “fold change (increase) of affinity for PCNA on grafting p21 flanking regions to Fen1” value worked out at 60 fold. For “CKRPRPEGMQTLESFFKPLTH [PolEta 694–713, literature DNA polymerase η peptide]”, on PCNA [4] (setting [6]), the Kd is 0.4 µM. As to “KTSPGRSVKEEAQNLIRHFFHGRARCES [RecQ5 952-979, literature RecQ5 peptide]”, the Kd on PCNA [2] (pH 7.0, T 308, ref PMID 30655288) is 210 µM. “PKWQKGIGEFFR [p15 59–70, literature p15(PAF) peptide]”: the Kd on PCNA [2] (pH 7, T 308, ref PMID 25762514) was 83 µM.

For the substance Ac-RQSTLYSFFPKSPAL-NH2 [MSH6], the dissociation constant Kd at human PCNA [5] is 2.61 µM. As to “Ac-RKRRATSMTDFYHSKRRL-NH2 [p21^140–157,Q144A]”, at human PCNA [3] (ITC), the “fold drop in the affinity for PCNA on mutating Q at the first position to alanine” value was 50 fold. For “KRRQTSMTDFYH [p21 141–152, literature p21 peptide]”, the Kd at PCNA [2] (pH 7, T 303, ref PMID 23139781) is 0.625 µM; at PCNA [2] (pH 7, T 308, ref PMID 23139781), 1.1 µM. MIGQKTLYSFFTPSP [UNG2] gave a dissociation constant Kd at human PCNA [5] of 34.1 µM. On to “MDRFLVKGAQGGLLRK [ABH2 1-16, literature ABH2 APIM peptide]”, for which the Kd at PCNA [2] (setting [7]) was 0.32 µM.

Turning to “p15 1–111: full-length p15(PAF) protein, literature”, the Kd at PCNA [2] (pH 7, T 298, ref PMID 25762514) was 0.11 µM; at PCNA [2] (pH 7, T 308, ref PMID 25762514) it was 2.5 µM. In the case of Ac-MDRWLVKW-NH2 [APIM], the affinity at human PCNA [5], expressed as Kd, was 10.9 µM. Turning to “GKANRQVSITGFFQRK* [p66Polδ 451–466, literature peptide of DNA polymerase δ p66 subunit]”, the Kd at PCNA [2] (setting [8]) was 15.6 µM. With “QVRRQSLASKHGSDITRFLVKK [ZRANB3 1058–79, literature ZRANB3 APIM peptide]”, at PCNA [2] (pH not given, T 298, ref PMID 28621305), the equilibrium dissociation constant (Kd) is 9.2 µM.

For “QHGKKDSKITDHFMRLPKA [PARG 402–420, literature PARG peptide]”, the Kd at PCNA [2] (pH 7.4, T 298, ref PMID 28934471) is 3.3 µM. Broadly, the koff is a measure of how fast the partners let go of each other. What is called kon is the rate constant with which the complex forms. Low readings indicate slower complex formation, high ones faster complex formation. On to Ac-RQTSMTDFYHSKRRL-NH2 [p21], for which, at human PCNA [5] (setting [9]), the koff is 0.14 ± 0.0003 s⁻¹ and the on-rate constant (kon) is 1.7e+06 ± 1e+10 M⁻¹ s⁻¹. As for “PRPEGMQTLESFFKPLTH* [PolEta 696–713, literature DNA polymerase η peptide]”, the equilibrium dissociation constant (Kd) at PCNA [2] (pH 7.4, T 298, ref PMID 26903512) is 11 µM. With “PANGEQLHLVNYVEDTLDSIES [ING1 4–25, literature ING1 peptide]”, the dissociation constant Kd on PCNA [1] (NMR, pH 7, T 308, ref PMID 23139781) is 12500 µM. In the case of Ac-TQGRLDDFFKVTGSL-NH2 [FEN1], the Kd on human PCNA [5] amounted to 44.9 µM.

Take “SQGRKRRQTSMTDFYHSKRR [p21 137–156, literature p21 peptide]”: on PCNA [4] (setting [6]), the dissociation constant Kd was 0.065 µM. Regarding “RGQGSQRCIPEFFLAGKQPCTN [FBH1 52–72, literature FBH1 peptide]”, the Kd at PCNA [2] (setting [7]) is 0.25 µM. With “SKSRQGSTQGRLDDFF [FEN1 329–344, literature FEN1 peptide]”, the Kd at PCNA [4] (pH 7.4, T not given, ref PMID 24728180) is 0.0846 µM. As to “KDKFIRRWVHKEGFSG [FBH1 605-620, literature FBH1 peptide]”, on PCNA [2] (setting [7]), the Kd is 0.59 µM. On human PCNA [3] (10 mM HEPES, 150 mM NaCl, 1 mM EDTA, 1 mM TCEP, pH 7.4, 25 °C, one set of sites, mean of triplicates), Ac-SESSQTSMTDFYHSKRRL-NH2 [S1] registered a dissociation constant (Kd) of 8.3 ± 1.9 µM. Turning to “FTHFEKEKQHDIRSFFVPQPKK [ZRANB3 511–532, literature ZRANB3 PIP-box peptide]”, on PCNA [1] (method not given, pH 7.5, T 298, ref PMID 28621305), the dissociation constant (Kd) is 4.8 µM. Turning to “RQGSTQGRLDDFFKVTGSLSSA [FEN1 332–353, literature FEN1 peptide]”, the Kd at PCNA [2] (setting [8]) is 59 µM.
